This is an account of results in paper PMC7329795 (Pharmacological Reports, 2020).

Where two headings read alike, the source gives them in different places.

The target of data set [1] is T1, CYP2C9 (Homo sapiens, UniProt P11712). The data set is described as follows: in vitro. As to the method:
(§1) The final incubation volume was 0.5 ml. After a 30-min incubation, the reaction was stopped by adding 100 µl of acetonitrile. […] The final concentration of CYP2C9 was 50 pmol/ml. Concentrations of diclofenac and its metabolite 4′-hydroxydiclofenac, formed in liver microsomes or Supersomes 2C9, were assessed by the HPLC method with UV detection, as described previously.

Data set [2] has as its target T1, CYP2C9. The data set is described as follows: CYP2C9 activity, diclofenac 4′-hydroxylation, Supersomes CYP2C9. The following applies: human, pH 7.4, probe diclofenac (4′-hydroxylation). As to the method:
as §1

Data set [3] concerns the target human cDNA-expressed CYP2C9 (Homo sapiens, UniProt P11712). The data set is described as above. As to the method: as §1
Data set [4] concerns the target T2, CYP2D6 (Homo sapiens, UniProt P10635). As to conditions: liver microsomes; Lineweaver–Burk's plots. (In general: Liver microsomes are a subcellular fraction often used to study metabolism.)
Data set [5] concerns the target T3, CYP1A2 (Homo sapiens, UniProt P05177).
T3 sequence (P05177 1-516): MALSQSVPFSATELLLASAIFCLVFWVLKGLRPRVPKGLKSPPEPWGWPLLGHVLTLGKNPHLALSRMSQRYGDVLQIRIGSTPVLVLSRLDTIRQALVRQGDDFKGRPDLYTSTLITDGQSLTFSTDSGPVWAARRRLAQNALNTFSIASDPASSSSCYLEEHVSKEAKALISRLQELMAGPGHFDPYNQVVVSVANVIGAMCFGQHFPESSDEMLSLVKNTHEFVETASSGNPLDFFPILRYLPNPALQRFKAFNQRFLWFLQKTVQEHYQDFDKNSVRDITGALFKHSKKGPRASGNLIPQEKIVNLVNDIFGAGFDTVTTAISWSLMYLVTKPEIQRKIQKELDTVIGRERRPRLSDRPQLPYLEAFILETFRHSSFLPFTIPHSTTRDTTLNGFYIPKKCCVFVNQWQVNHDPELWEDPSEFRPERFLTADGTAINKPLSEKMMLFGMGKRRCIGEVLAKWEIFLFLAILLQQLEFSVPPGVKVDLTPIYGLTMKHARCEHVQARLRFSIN

Data set [6] has as its target T4, human cDNA-expressed CYP2D6 (Homo sapiens, UniProt P10635).
Data set [7] addresses T5, CYP2C19 (Homo sapiens, UniProt P33261).
Data set [8] concerns the target T4, human cDNA-expressed CYP2D6. The following applies: recombinant enzyme.
Data set [9] concerns the target T2, CYP2D6.
For data set [10] the following is noted: cited from earlier work.
Data set [11] concerns the target T5, CYP2C19. The following applies: liver microsomes; asenapine 0.01-10 μM.
For data set [12] the following is noted: cited from earlier work. The source holds these as a separate data set.
Data set [13] concerns the target T2, CYP2D6. Also on record: method as in PMID 26033329. The following applies: psychiatric patients; cited from earlier work.
Data set [14] addresses T3, CYP1A2. The following applies: liver microsomes; Lineweaver–Burk's plots.
Data set [15] has as its target human cDNA-expressed CYP3A4 (Homo sapiens, UniProt P08684).
The conditions of data set [16]: cited from earlier work. The source holds these as a separate data set.
Data set [17] concerns the target T6, CYP3A4 (Homo sapiens, UniProt P08684).
The conditions of data set [18]: clinical studies; cited from earlier work.
Data set [19] has as its target T6, CYP3A4. Put plainly: in vitro. As to conditions: pH 7.4.
Data set [20] has as its target T6, CYP3A4. The data set is described as follows: in vitro. The following applies: pH 7.4. The source holds these as a separate data set.
Substrate in data set [21]: CN1CCN(CCCN2c3ccccc3Sc3ccccc32)CC1
Substrate in data set [22]: Cn1c(=O)c2c(ncn2C)n(C)c1=O

T1 sequence (P11712 whole entry): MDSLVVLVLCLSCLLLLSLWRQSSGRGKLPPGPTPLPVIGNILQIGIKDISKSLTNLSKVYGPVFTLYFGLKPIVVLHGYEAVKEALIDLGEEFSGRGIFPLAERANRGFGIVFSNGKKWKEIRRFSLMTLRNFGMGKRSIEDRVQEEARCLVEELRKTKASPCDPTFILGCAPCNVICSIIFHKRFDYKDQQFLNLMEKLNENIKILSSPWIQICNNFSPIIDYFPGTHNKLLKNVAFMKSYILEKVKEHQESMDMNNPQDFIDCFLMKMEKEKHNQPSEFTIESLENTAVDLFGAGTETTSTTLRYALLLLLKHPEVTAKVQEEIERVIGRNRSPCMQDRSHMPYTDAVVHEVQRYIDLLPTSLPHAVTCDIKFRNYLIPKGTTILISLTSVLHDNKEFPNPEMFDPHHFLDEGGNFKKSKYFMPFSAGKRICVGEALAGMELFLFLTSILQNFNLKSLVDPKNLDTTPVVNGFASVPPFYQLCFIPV
T6 sequence (P08684 whole entry): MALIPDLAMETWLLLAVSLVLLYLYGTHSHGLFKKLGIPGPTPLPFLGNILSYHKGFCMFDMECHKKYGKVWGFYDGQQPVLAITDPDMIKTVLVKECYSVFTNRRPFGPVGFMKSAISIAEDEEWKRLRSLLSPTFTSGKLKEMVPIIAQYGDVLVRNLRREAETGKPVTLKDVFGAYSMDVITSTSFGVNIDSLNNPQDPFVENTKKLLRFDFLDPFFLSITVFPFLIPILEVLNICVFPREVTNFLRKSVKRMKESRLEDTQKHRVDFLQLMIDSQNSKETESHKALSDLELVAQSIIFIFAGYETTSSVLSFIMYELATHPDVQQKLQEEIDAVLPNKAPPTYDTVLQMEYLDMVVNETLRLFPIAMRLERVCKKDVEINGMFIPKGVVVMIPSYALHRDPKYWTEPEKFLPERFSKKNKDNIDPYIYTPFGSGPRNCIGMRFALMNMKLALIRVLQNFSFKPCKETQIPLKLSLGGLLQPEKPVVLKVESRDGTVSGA
T4 sequence (P10635 whole entry): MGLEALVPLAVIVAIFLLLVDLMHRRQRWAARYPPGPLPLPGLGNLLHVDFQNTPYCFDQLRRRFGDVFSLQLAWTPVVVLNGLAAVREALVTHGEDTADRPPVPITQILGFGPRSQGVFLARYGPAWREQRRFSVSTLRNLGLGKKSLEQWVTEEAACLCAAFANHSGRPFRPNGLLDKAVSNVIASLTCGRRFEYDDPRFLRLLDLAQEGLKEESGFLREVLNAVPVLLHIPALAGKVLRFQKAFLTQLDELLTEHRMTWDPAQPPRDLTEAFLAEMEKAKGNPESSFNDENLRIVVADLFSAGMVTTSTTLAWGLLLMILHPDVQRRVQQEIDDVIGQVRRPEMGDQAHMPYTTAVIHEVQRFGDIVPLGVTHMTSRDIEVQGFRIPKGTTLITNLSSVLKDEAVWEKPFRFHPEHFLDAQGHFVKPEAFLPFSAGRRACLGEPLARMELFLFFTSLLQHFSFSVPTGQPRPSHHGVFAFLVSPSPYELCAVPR
T2 sequence (P10635 whole entry): as above
Chain of human cDNA-expressed CYP2C9 (P11712 whole entry): as the sequence (P11712 whole entry) above
Chain of human cDNA-expressed CYP3A4 (P08684 whole entry): as the sequence (P08684 whole entry) above

The term Km denotes the concentration of substrate that gives half-maximal velocity. Turning to `O=C(O)Cc1ccccc1Nc1c(Cl)cccc1Cl` [diclofenac], the Km at 30 min was 137 µM at CYP2C9 [1] (human, pH 7.4) and 132 µM at CYP2C9 [2]. Also, the “Vmax, diclofenac 4′-hydroxylation” value in data set [3] (Supersomes CYP2C9) stood at 213.6 pmol/pmol CYP/min.

As a reminder, the IC50 is the midpoint of a concentration-inhibition curve. Low readings indicate greater potency, high ones weaker potency. Usually Ki stands for the dissociation constant of the complex between target and ligand, obtained from inhibition or displacement. Broadly, the pKa is the pH at which an ionisable group is half protonated. By log P is commonly meant a log measure of how a compound divides between an organic and an aqueous phase. Regarding `CN1CC2c3ccccc3Oc3ccc(Cl)cc3C2C1` (stereo not drawn) [Asenapine], the “type of inhibition (CYP2D6)” value (on CYP2D6 [4]; in data set [8]) was “competitive” in each case. Moreover, the IC50 on CYP1A2 [5] was 0.697 µM; against CYP2C9 [1], > 1000 µM; in [6], 0.398 µM; on CYP2C19 [7], > 1000 µM; in data set [3], > 1000 µM; against CYP2D6 [9], 0.391 µM. In addition, the Ki on CYP1A2 [5] turned out to be 3.2 µM; in data set [6], 1.89 µM; at CYP2D6 [9], 1.75 µM. Also, at CYP2C9 [1] (liver microsomes, asenapine 0.01-10 μM), the “effect on the activity of CYP2C9” value is given as “did not affect”. Further, the pKa in data set [10] (amine) was 9.64; in [10] (protonated base), 8.6. The log partition coefficient (log P) in [10] (cationic form) is listed as 1.4; in data set [10] (neutral form), 4.9. For the same molecule, the “effect on the activity of CYP2C19” value at CYP2C19 [11] is recorded as “did not affect”. Moreover, the “bound to plasma proteins” value in [12] is reported as 95%. At CYP2D6 [13], the “effect on the concentration of paroxetine (a CYP2D6 substrate) in the blood plasma” value was “doubled”. Moreover, the “type of inhibition (CYP1A2)” value at CYP1A2 [14] is given as “mixed”. Moreover, the “type of inhibition (CYP3A4)” value is given as “non-competitive” in data set [15] (recombinant enzyme) and “non-competitive” on CYP3A4 [17] (liver microsomes, Lineweaver–Burk's plots). For the same molecule, the “estimated terminal half-life (t1/2)” value in data set [16] (adults) was “approximately 24 h”. In addition, the therapeutic plasma concentrations entry in [16] is listed as “up to 0.1 μM”.

Regarding `O=C(CCCN1CCC(O)(c2ccc(Cl)cc2)CC1)c1ccc(F)cc1` [haloperidol], in data set [18], the “concentration in the liver relative to that in plasma” value is given as 900 fold.

As for `C[C@]12CC[C@H]3[C@@H](CCC4=CC(=O)CC[C@@]43C)[C@@H]1CC[C@@H]2O` [testosterone], on CYP3A4 [19], the Km at 20 min stood at 283 µM. The “Vmax, testosterone 6β-hydroxylation” value in [15] (Supersomes CYP3A4) came to 42.9 pmol/pmol CYP/min; on CYP3A4 [17] (human liver microsomes), 72.9 pmol/mg protein/min. Moreover, the Km at 30 min on CYP3A4 [20] worked out at 428 µM.

B1: CYP2C19 (Homo sapiens) (protein)
chain: MDPFVVLVLCLSCLLLLSIWRQSSGRGKLPPGPTPLPVIGNILQIDIKDVSKSLTNLSKIYGPVFTLYFGLERMVVLHGYEVVKEALIDLGEEFSGRGHFPLAERANRGFGIVFSNGKRWKEIRRFSLMTLRNFGMGKRSIEDRVQEEARCLVEELRKTKASPCDPTFILGCAPCNVICSIIFQKRFDYKDQQFLNLMEKLNENIRIVSTPWIQICNNFPTIIDYFPGTHNKLLKNLAFMESDILEKVKEHQESMDINNPRDFIDCFLIKMEKEKQNQQSEFTIENLVITAADLLGAGTETTSTTLRYALLLLLKHPEVTAKVQEEIERVIGRNRSPCMQDRGHMPYTDAVVHEVQRYIDLIPTSLPHAVTCDVKFRNYLIPKGTTILTSLTSVLHDNKEFPNPEMFDPRHFLDEGGNFKKSNYFMPFSAGKRICVGEGLARMELFLFLTFILQNFNLKSLIDPKDLDTTPVVNGFASVPPFYQLCFIPV
On to B1, for which, in data set [21], the Michaelis-Menten constant (Km) turned out to be 199.9 µM and the Vmax is recorded as 1.58 nmol/mg protein/min.

B2: CYP1A2 (Homo sapiens) (protein)
chain: T3 sequence (P05177 1-516)
As for B2, in data set [22], the Km was 709 µM and the Vmax amounted to 9.67 pmol/mg protein/min.
